Tests used:
[1] = species: Homo sapiens; experiment: In vitro inhibition for TNF-alpha production from LPS-stimulated human whole blood; format: functional
[2] = molecular target: Stromelysin-1 (Homo sapiens, UniProt P08254); experiment: Inhibition of MMP-3 (Matrix metalloprotease-3)
[3] = molecular target: T1, Interstitial collagenase (Homo sapiens, UniProt P03956); experiment: Inhibition of MMP-1 (Matrix metalloprotease-1)
T1 sequence (P03956 whole entry): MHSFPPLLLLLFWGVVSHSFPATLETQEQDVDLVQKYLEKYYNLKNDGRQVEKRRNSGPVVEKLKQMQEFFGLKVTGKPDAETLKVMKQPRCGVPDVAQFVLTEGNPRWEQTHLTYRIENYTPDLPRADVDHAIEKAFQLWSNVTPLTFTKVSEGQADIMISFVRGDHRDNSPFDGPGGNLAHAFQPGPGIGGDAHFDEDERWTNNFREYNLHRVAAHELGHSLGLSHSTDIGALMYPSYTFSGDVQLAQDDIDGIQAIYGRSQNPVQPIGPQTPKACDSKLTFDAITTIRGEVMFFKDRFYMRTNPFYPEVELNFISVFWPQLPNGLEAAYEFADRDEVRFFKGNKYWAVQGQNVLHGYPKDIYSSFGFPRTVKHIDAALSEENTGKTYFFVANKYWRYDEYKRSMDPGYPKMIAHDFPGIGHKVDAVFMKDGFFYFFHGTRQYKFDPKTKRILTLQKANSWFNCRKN

[4] = molecular target: Matrix metalloproteinase-9 (Homo sapiens, UniProt P14780); experiment: Inhibition of MMP-9 (Matrix metalloprotease-9)
Matrix metalloproteinase-9, sequence (P14780 whole entry): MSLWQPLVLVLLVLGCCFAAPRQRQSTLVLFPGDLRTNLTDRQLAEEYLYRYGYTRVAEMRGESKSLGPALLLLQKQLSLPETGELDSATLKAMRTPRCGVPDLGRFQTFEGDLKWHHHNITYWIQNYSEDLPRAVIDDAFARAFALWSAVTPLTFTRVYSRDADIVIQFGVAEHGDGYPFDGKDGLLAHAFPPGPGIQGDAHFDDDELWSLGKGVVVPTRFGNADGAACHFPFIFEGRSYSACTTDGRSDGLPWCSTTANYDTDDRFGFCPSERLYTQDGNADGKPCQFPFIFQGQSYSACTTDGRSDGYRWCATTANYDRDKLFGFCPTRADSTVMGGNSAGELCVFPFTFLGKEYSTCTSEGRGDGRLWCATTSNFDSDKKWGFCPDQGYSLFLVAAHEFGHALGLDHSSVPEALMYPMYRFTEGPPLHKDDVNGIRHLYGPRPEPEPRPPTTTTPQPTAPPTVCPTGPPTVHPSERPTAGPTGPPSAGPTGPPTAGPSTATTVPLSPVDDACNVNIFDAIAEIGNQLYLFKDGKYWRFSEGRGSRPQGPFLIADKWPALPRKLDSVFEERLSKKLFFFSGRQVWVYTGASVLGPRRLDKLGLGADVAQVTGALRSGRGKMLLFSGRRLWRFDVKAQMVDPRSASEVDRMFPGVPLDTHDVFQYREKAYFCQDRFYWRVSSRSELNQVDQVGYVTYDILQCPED

Stromelysin-1, sequence (P08254 whole entry): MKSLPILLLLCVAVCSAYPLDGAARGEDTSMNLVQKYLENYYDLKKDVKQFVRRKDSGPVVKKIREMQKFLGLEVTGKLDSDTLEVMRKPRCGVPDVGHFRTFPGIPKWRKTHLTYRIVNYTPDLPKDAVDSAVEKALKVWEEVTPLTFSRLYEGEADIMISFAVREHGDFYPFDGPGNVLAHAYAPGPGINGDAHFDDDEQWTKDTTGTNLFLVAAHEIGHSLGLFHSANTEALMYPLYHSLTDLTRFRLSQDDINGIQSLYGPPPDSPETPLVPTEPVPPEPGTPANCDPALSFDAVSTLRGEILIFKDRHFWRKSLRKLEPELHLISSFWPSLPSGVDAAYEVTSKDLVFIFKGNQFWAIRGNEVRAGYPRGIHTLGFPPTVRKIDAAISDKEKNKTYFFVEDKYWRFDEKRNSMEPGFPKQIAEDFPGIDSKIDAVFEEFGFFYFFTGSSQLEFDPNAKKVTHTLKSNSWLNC

IC50 [1] | Ki [2] | Ki [3] | Ki [4] | Compound
1800 nM | 1.93 nM | 0.87 nM | 0.13 nM | CNC(=O)[C@@H](Cc1ccc(OC)cc1)NC(=O)[C@H](CC(C)C)[C@H](C)C(=O)NO
1200 nM | 32.7 nM | 1.2 nM | 1.8 nM | CNC(=O)[C@@H]1Cc2ccc(cc2)OCCC[C@H](C(=O)NO)[C@@H](CC(C)C)C(=O)N1
6500 nM | 24.1 nM | 2.8 nM | 2.6 nM | CNC(=O)[C@@H]1CCCCNC(=O)CO[C@H](C(=O)NO)[C@@H](CC(C)C)C(=O)N1

Reference: ChEMBL document CHEMBL1131224, “Design and synthesis of cyclic inhibitors of matrix metalloproteinases and TNF-alpha production” (J Med Chem, 1998)
